Literature values in patent US20190262453A1, “DESIGN AND COMPOSITION OF CELL-STABILIZED PHARMACEUTICAL FORMULATIONS” (THE REGENTS OF THE UNIVERSITY OF MICHIGAN, priority 2016, published 2019).
“And” between values parts separate entries of the source, which are not always exact repeats. Identical values can stand only once.

Conditions: in vivo; cited from earlier work

| SMILES | Vd |
| --- | --- |
| COc1cc2nc(N(C)CCCNC(=O)C3CCCO3)nc(N)c2cc1OC (stereo not shown) [Alfuzosin] | 3.2 L/kg |
| O=C1CCc2ccc(OCCCCN3CCN(c4cccc(Cl)c4Cl)CC3)cc2N1 [Aripiprazole] | 4.9 L/kg |
| CC[C@H]1OC(=O)[C@H](C)[C@@H](O[C@H]2C[C@@](C)(OC)[C@@H](O)[C@H](C)O2)[C@H](C)[C@@H](O[C@@H]2O[C@H](C)C[C@H](N(C)C)[C@H]2O)[C@](C)(O)C[C@@H](C)CN(C)[C@H](C)[C@@H](O)[C@]1(C)O [Azithromycin] | 31 L/kg |
| CC(NC(C)(C)C)C(=O)c1cccc(Cl)c1 (stereo not shown) [Bupropion] | 18.6 L/kg |
| O=C1CC2(CCCC2)CC(=O)N1CCCCN1CCN(c2ncccn2)CC1 [Buspirone] | 5.3 L/kg |
| CCCCCOC(=O)Nc1nc(=O)n([C@@H]2O[C@H](C)[C@@H](O)[C@H]2O)cc1F [Capecitabine] | 27.27 L/kg |
| Cc1ccc(-c2cc(C(F)(F)F)nn2-c2ccc(S(N)(=O)=O)cc2)cc1 [Celecoxib] | 6.12 L/kg |
| CCN(CC)CCCC(C)Nc1ccnc2cc(Cl)ccc12 (stereo not shown) [Chloroquine] | 196.5 L/kg |
| CN(C)CCC(c1ccc(Cl)cc1)c1ccccn1 (stereo not shown) [Chlorpheniramine] | 3.2 L/kg |
| CN(C)CCCN1c2ccccc2Sc2ccc(Cl)cc21 [Chlorpromazine] | 21 L/kg |
| C[C@@H](NCCCc1cccc(C(F)(F)F)c1)c1cccc2ccccc12 [Cinacalcet] | 17.6 L/kg |
| O=C1CN=C(c2ccccc2Cl)c2cc([N+](=O)[O-])ccc2N1 [Clonazepam] | 3.2 L/kg |
| CN1CCN(C2=Nc3cc(Cl)ccc3Nc3ccccc32)CC1 [Clozapine] | 5.4 L/kg |
| CN(C)CC(c1ccc(O)cc1)C1(O)CCCCC1 (stereo not shown) [Desvenlafaxine] | 7.5 L/kg |
| COc1ccc([C@@H]2Sc3ccccc3N(CCN(C)C)C(=O)[C@@H]2OC(C)=O)cc1 [Diltiazem] | 3.3 L/kg |
| CC(=O)O[C@@]12CO[C@@H]1C[C@H](O)[C@@]1(C)C(=O)[C@H](O)C3=C(C)[C@@H](OC(=O)[C@H](O)[C@@H](NC(=O)OC(C)(C)C)c4ccccc4)C[C@@](O)([C@@H](OC(=O)c4ccccc4)[C@H]21)C3(C)C [Docetaxel] | 7.27 L/kg |

| SMILES | Vd |
| --- | --- |
| CN(C)CCC=C1c2ccccc2COc2ccccc21 [Doxepin] | 24 L/kg |
| COc1cccc2c1C(=O)c1c(O)c3c(c(O)c1C2=O)C[C@@](O)(C(=O)CO)C[C@@H]3O[C@H]1C[C@H](N)[C@H](O)[C@H](C)O1 [Doxorubicin] | 682 L/kg |
| CCCCCc1cc(O)c2c(c1)OC(C)(C)[C@@H]1CCC(C)=C[C@@H]21 [Dronabinol] | 8.9 L/kg |
| CNCC[C@H](Oc1cccc2ccccc12)c1cccs1 [Duloxetine] | 7 L/kg |
| Nc1nc(=O)n([C@@H]2CS[C@H](CO)O2)cc1F [Emtricitabine] | 3.5 L/kg |
| O=C(NCC1CCCCN1)c1cc(OCC(F)(F)F)ccc1OCC(F)(F)F (stereo not shown) [Flecainide] | 4.9 L/kg |
| CNCCC(Oc1ccc(C(F)(F)F)cc1)c1ccccc1 (stereo not shown) [Fluoxetine] | 35 L/kg |
| OCCN1CCN(CCCN2c3ccccc3Sc3ccc(C(F)(F)F)cc32)CC1 [Fluphenazine] | 11 L/kg |
| C[C@]12CC[C@@H]3c4ccc(O)cc4C[C@@H](CCCCCCCCC[S+]([O-])CCCC(F)(F)C(F)(F)F)[C@H]3[C@@H]1CC[C@@H]2O (stereo partly shown) [Fulvestrant] | 4.15 L/kg |
| O=C(CCCN1CCC(O)(c2ccc(Cl)cc2)CC1)c1ccc(F)cc1 [Haloperidol] | 18 L/kg |
| CCN(CCO)CCCC(C)Nc1ccnc2cc(Cl)ccc12 (stereo not shown) [Hydroxychloroquine] | 525 L/kg |
| OCCOCCN1CCN(C(c2ccccc2)c2ccc(Cl)cc2)CC1 (stereo not shown) [Hydroxyzine] | 19 L/kg and 16 L/kg |
| CCCCCN(C)CCC(O)(P(=O)(O)O)P(=O)(O)O [Ibandronate] | 5.8 L/kg |
| CC(=O)[C@]1(O)Cc2c(O)c3c(c(O)c2[C@@H](O[C@H]2C[C@H](N)[C@H](O)[C@H](C)O2)C1)C(=O)c1ccccc1C3=O [Idarubicin] | 24.7 L/kg |
| CC1=C(/C=C/C(C)=C/C=C/C(C)=C\C(=O)O)C(C)(C)CCC1 [Isotretinoin] | 5 L/kg |
